Measurements: patent US20080200460A1, “Chemical Compounds” (priority 2004, published 2008)

Biological target: recombinant human CCR5 receptor (Homo sapiens, UniProt P51681)
Experiment: in vitro radioligand binding assay: inhibition of binding of iodinated MIP-1α (scintillation proximity)
Conditions: displacement of iodinated MIP-1α from membranes of Chinese hamster ovary cells expressing recombinant human CCR5; negative log10 of IC50; average if tested more than once
Protocol: The ability of compounds to inhibit the binding of MIP-1α was assessed by an in vitro radioligand binding assay. Membranes were prepared from Chinese hamster ovary cells which expressed the recombinant human CCR5 receptor. These membranes were incubated with […] iodinated MIP-1α, scintillation proximity beads and various concentrations of the compounds of the invention in 96-well plates. The amount of iodinated MIP-1α bound to the receptor was determined by scintillation counting. Competition curves were obtained for compounds and the concentration of compound which displaced 50% of bound iodinated MIP-1α was calculated (IC50).
Results from this test for certain compounds of the invention are presented in Table V. In Table V the results are presented as Pic50 values. A Pic50 value is the negative log (to base 10) of the IC50 result, so an IC50 of 1 μM (that is 1×10^−6M) gives a Pic50 of 6. If a compound was tested more than once then the data below is an average of the probative tests results.

Sequence of recombinant human CCR5 receptor (P51681 whole entry): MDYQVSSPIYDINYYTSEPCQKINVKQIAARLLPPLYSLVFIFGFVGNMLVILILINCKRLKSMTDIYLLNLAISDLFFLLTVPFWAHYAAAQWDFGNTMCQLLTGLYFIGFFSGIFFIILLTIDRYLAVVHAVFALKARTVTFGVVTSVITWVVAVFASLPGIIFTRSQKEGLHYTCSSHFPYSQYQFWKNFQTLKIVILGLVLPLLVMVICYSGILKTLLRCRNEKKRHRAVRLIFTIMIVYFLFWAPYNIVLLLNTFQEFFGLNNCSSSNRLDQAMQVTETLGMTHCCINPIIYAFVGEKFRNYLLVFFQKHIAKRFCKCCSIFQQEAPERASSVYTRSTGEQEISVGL

With `CCN(C(=O)NCC1CCN(S(C)(=O)=O)CC1)C1CCN(CC[C@H](c2ccc(S(C)(=O)=O)cc2)c2cc(F)cc(F)c2)CC1` [Compound 1 Table IV] the IC50 was 0.316 nM.
For `CCN(C(=O)CC1CCN(S(C)(=O)=O)CC1)C1CCN(CC[C@H](c2ccc(S(C)(=O)=O)cc2)c2cc(F)cc(F)c2)CC1` [Compound 1 Table III, N-(1-{(3R)-3-(3,5-difluorophenyl)-3-[4-(methylsulphonyl)phenyl]propyl}piperidin-4-yl)-N-ethyl-2-[1-(methylsulphonyl)piperidin-4-yl]acetamide], the IC50 was 0.794 nM.
In the case of `CCN(C(=O)CN1CCN(S(C)(=O)=O)CC1)C1CCN(CC[C@@H](c2cc(F)cc(F)c2)C2CCN(S(C)(=O)=O)CC2)CC1` [Compound 5 Table I, N-(1-{(3R)-3-(3,5-difluorophenyl)-3-[1-(methylsulfonyl)piperidin-4-yl]propyl}piperidin-4-yl)-N-ethyl-2-[4-(methylsulfonyl)piperazin-1-yl]acetamide], the IC50 is reported as 3.16 nM.
Work on `CCN(C(=O)CC1CCOCC1)C1CCN(CC[C@H](c2ccc(S(C)(=O)=O)cc2)c2cc(F)cc(F)c2)CC1` [Compound 2 Table III, N-(1-{(3R)-3-(3,5-difluorophenyl)-3-[4-(methylsulphonyl)phenyl]propyl}piperidin-4-yl)-N-ethyl-2-(tetrahydro-2H-pyran-4-yl)acetamide] yielded an IC50 of 15.8 nM.
In the case of `C=CCN(C(=O)CC1CCN(S(C)(=O)=O)CC1)C1CCN(CC[C@@H](c2cc(F)cc(F)c2)C2CCN(S(C)(=O)=O)CC2)CC1` [Compound 7 Table I, N-allyl-N-(1-{(3R)-3-(3,5-difluorophenyl)-3-[1-(methylsulfonyl)piperidin-4-yl]propyl}piperidin-4-yl)-2-[1-(methylsulfonyl)piperidin-4-yl]acetamide], the IC50 is reported as 0.316 nM.
